This passage reports IC50 results from patent US20250213555A1, “SUBSTITUTED TETRAHYDROFURAN ANALOGS AS MODULATORS OF SODIUM CHANNELS” (VERTEX PHARMACEUTICALS INCORPORATED, priority 2021, published 2025).

In the first test the target is human Nav 1.8 (Homo sapiens, UniProt Q9Y5Y9). Put plainly: E-VIPR assay detecting and measuring Nav inhibition properties. It counts as cell-based. The conditions noted are these: HEK cells expressing a truncated form of human Nav 1.8; assay performed in the presence of human serum (compound numbers followed by "*"); read-out: measured IC50 value in the E-VIPR Assay. The text has this: E-VIPR Assay Detecting and Measuring Nav Inhibition Properties
Chain of human Nav 1.8 (Q9Y5Y9 126-399 limits assumed): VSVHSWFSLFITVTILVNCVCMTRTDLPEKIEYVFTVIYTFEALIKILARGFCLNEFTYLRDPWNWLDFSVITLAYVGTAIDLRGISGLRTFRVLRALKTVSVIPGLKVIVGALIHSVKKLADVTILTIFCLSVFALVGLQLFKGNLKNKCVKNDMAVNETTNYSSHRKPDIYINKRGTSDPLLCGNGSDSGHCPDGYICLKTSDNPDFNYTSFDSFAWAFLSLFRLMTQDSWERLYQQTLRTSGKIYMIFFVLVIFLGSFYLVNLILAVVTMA
Chain of human Nav 1.8 (Q9Y5Y9 660-890 limits assumed): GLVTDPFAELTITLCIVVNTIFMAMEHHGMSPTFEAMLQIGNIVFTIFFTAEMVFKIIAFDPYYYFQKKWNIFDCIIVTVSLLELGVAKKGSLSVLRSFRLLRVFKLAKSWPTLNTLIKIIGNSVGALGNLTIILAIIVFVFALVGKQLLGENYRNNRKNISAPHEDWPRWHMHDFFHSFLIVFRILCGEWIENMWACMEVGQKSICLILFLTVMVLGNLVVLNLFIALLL
Chain of human Nav 1.8 (Q9Y5Y9 1148-1722 limits assumed): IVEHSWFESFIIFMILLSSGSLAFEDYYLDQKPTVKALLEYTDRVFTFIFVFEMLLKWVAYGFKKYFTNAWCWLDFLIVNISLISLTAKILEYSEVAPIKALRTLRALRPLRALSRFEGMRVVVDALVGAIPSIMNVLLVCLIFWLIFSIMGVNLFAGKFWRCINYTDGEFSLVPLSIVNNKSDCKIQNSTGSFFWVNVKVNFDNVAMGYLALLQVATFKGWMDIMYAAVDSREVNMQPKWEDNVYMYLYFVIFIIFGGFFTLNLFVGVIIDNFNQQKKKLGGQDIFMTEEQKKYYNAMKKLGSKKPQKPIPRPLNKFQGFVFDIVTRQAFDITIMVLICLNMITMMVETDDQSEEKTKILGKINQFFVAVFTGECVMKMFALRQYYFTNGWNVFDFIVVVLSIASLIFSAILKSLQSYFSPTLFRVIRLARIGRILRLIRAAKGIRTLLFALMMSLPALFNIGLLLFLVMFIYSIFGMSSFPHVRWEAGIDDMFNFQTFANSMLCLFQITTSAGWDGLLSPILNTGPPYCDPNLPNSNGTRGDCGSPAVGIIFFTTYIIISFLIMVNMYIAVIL
Sodium ion channels are voltage-dependent proteins that can be activated by inducing membrane voltage changes by applying electric fields. The electrical stimulation instrument and methods of use, referred to as E-VIPR, are described in International Publication No. WO 2002/008748 A3 and C.-J. Huang et al. Characterization of voltage-gated sodium channel blockers by electrical stimulation and fluorescence detection of membrane potential, 24 Nature Biotech. 439-46 (2006), both of which are incorporated by reference in their entirety. The instrument comprises a microtiter plate handler, an optical system for exciting the coumarin dye while simultaneously recording the coumarin and oxonol emissions, a waveform generator, a current- or voltage-controlled amplifier, and parallel electrode pairs that are inserted into assay plate wells. Under integrated computer control, this instrument passes user-programmed electrical stimulus protocols to cells within the wells of the microtiter plate.
16-20 hours prior to running the assay on E-VIPR, HEK cells expressing a truncated form of human Nav 1.8 with full channel activity were seeded into microtiter 384-well plates, pre-coated with matrigel, at a density of 25,000 cells per well. 2.5-5% KIR2.1 Bacmam virus was added to the final cell suspension before seeding into cell plates. HEK cells were grown in Dulbecco's Modified Eagle's Medium (DMEM) supplemented with 10% FBS (Fetal Bovine Serum, qualified; Sigma #F4135), 1% NEAA (Non-Essential Amino Acids, Gibco #11140), 1% HEPES (Gibco #15630), 1% Pen-Strep (Penicillin-Streptomycin; Gibco #15140) and 5 μg/ml Blasticidin (Gibco #R^210-01). Cells were expanded in vented cap cell culture flasks, with 90-95% humidity and 5% CO2.
100 mg/mL Pluronic F-127 (Sigma #P2443), in dry DMSO
Compound Plates: Corning 384-well Polypropylene Round Bottom #3656
Cell Plates: 384-well tissue culture treated plates (Greiner #781091-2B)
2.5-5% KIR 2.1 Bacmam virus (produced in-house), prepared as described in Section 3.3 of J. A. Fornwald et al., Gene Expression in Mammalian Cells Using BacMam, a Modified Baculovirus System, 1350 Methods in Molecular Biology 95-116 (2016), the entire contents of which are incorporated by reference. The concentration used can be dependent on viral titer of each batch.
5 mM DiSBAC6(3), a voltage sensitive oxonol acceptor (CAS number 169211-44-3; 5-[3-(1,3-dihexylhexahydro-4,6-dioxo-2-thioxo-5-pyrimidinyl)-2-propen-1-ylidene]-1,3-dihexyldihydro-2-thioxo-4,6 (1H,5H)-pyrimidinedione), in dry DMSO. The preparation of DiSBAC6(3) is analogous to that of DiSBAC4(3) as described in Voltage Sensing by Fluorescence Resonance Energy Transfer in Single Cells, Gonzalez, J. E. and Tsien, R. Y. (1995) Biophys. J. 69, 1272-1280.
5 mM CC2-DMPE, a commercially available membrane-bound coumarin phospholipid FRET donor (ThermoFisher Scientific catalog number K1017, CAS number 393782-57-5; tetradecanoic acid, 1,1′-[(1R)-1-[8-(6-chloro-7-hydroxy-2-oxo-2H-1-benzopyran-3-yl)-3-hydroxy-3-oxido-8-oxo-2,4-dioxa-7-aza-3-phosphaoct-1-yl]-1,2-ethanediyl] ester) was prepared in dry DMSO. See also, Improved indicators of cell membrane potential that use fluorescence resonance energy transfer, Gonzalez, J. E. and Tsien, R. Y. (1997) Chem. Biol. 4, 269-277.
Voltage Assay Background Suppression Compound (VABSC-1) is prepared in H2O (89-363 mM, range used to maintain solubility)
Human Serum (HS, Millipore #S1P1-01KL, or Sigma SLBR5469V and SLBR5470V as a 50%/50% mixture, for 25% assay final concentration)
• Sodium Chloride 160 mM (9.35 g/L), Potassium Chloride, 4.5 mM (0.335 g/L), Glucose 10 mM (1.8 g/L), Magnesium Chloride (Anhydrous) 1 mM (0.095 g/L), Calcium Chloride 2 mM (0.222 g/L), HEPES 10 mM (2.38 g/L) in water. […]
Broadly, the IC50 is the point on the concentration scale where inhibition reaches its midpoint. For the compound `C[C@]1(C(F)(F)F)C[C@@H](c2ccc(F)c(F)c2OCCCO)[C@H](C(=O)Nc2ccnc(C(N)=O)c2)O1` (relative stereo) [Compound 35, rel-4-((2R,3S,5R)-3-(3,4-difluoro-2-(3-hydroxypropoxy)phenyl)-5-methyl-5-(trifluoromethyl)tetrahydrofuran-2-carboxamido)picolinamide], the IC50 lay within 100 to 1000 nM.

On to `COCC[C@]1(C)C[C@@H](c2ccc(F)c(F)c2OC)[C@H](C(=O)Nc2ccnc(C(N)=O)c2)O1` (single isomer, unassigned) [Compound 30], for which the IC50 was at least 1000 nM.

`Cc1c(F)ccc([C@H]2C[C@@](C)(C(F)(F)F)O[C@@H]2C(=O)Nc2ccnc(C(N)=O)c2)c1OCCO` (single isomer, unassigned) [Compound 36]: the IC50 was at least 1000 nM.

As for `Cc1c(F)ccc([C@@H]2C[C@](C)(C(F)(F)F)O[C@H]2C(=O)Nc2ccnc(C(N)=O)c2)c1OCCO` (single isomer, unassigned) [Compound 37], the IC50 was 100 to 1000 nM.

The test is the same for the next values; noted with them: HEK cells expressing a truncated form of human Nav 1.8; compound numbers without "*" (not marked as run in the presence of human serum); read-out: measured IC50 value in the E-VIPR Assay.
In the case of `COCc1c([C@H]2[C@H](C(=O)Nc3ccnc(C(N)=O)c3)O[C@@](C)(C(F)(F)F)[C@H]2C)ccc(F)c1F` (racemic) [Compound 145, rac-4-((2R,3S,4S,5R)-3-(3,4-difluoro-2-(methoxymethyl)phenyl)-4,5-dimethyl-5-(trifluoromethyl)tetrahydrofuran-2-carboxamido)picolinamide], the IC50 is under 10 nM.

As for `CC(C)(O)COc1c([C@@H]2C[C@](C)(C(F)(F)F)O[C@H]2C(=O)Nc2ccnc(C(N)=O)c2)ccc(F)c1F` (relative stereo) [Compound 32, rel-4-((2R,3S,5R)-3-(3,4-difluoro-2-(2-hydroxy-2-methylpropoxy)phenyl)-5-methyl-5-(trifluoromethyl)tetrahydrofuran-2-carboxamido) picolinamide], the IC50 is 100 to 1000 nM.

Regarding `C[C@]1(C(F)(F)F)C[C@@H](c2ccc(F)c(F)c2OCCO)[C@H](C(=O)Nc2ccnc(C(N)=O)c2)O1` (relative stereo) [Compound 33, rel-4-((2R,3S,5R)-3-(3,4-difluoro-2-(2-hydroxyethoxy)phenyl)-5-methyl-5-(trifluoromethyl)tetrahydrofuran-2-carboxamido)picolinamide], the IC50 is 10 to 100 nM.

On to `COCCOc1c([C@@H]2C[C@](C)(C(F)(F)F)O[C@H]2C(=O)Nc2ccnc(C(N)=O)c2)ccc(F)c1F` (relative stereo) [Compound 34, rel-4-((2R,3S,5R)-3-(3,4-difluoro-2-(2-methoxyethoxy)phenyl)-5-methyl-5-(trifluoromethyl)tetrahydrofuran-2-carboxamido)picolinamide], for which the IC50 was under 10 nM.

For `C[C@H]1[C@@H](c2ccc(F)c(F)c2OCCN2C[C@@H]3C[C@H]2CO3)[C@H](C(=O)Nc2ccnc(C(N)=O)c2)O[C@@]1(C)C(F)(F)F` (relative stereo) [Compound 46, rel-4-((2R*,3S*,4S*,5R*)-3-(2-(2-((1S,4S)-2-oxa-5-azabicyclo[2.2.1]heptan-5-yl)ethoxy)-3,4-difluorophenyl)-4,5-dimethyl-5-(trifluoromethyl)tetrahydrofuran-2-carboxamido)picolinamide], the IC50 was under 10 nM.

As for `C[C@H]1[C@@H](c2ccc(F)c(F)c2OCCN2C[C@H]3C[C@@H]2CO3)[C@H](C(=O)Nc2ccnc(C(N)=O)c2)O[C@@]1(C)C(F)(F)F` (relative stereo) [Compound 47, rel-4-((2R*,3S*,4S*,5R*)-3-(2-(2-((1R,4R)-2-oxa-5-azabicyclo[2.2.1]heptan-5-yl)ethoxy)-3,4-difluorophenyl)-4,5-dimethyl-5-(trifluoromethyl)tetrahydrofuran-2-carboxamido)picolinamide], the IC50 lay in the range of 10 to 100 nM.

Take `C[C@H]1[C@@H](c2ccc(F)c(F)c2OC[C@H]2CC[C@H]2O)[C@H](C(=O)Nc2ccnc(C(N)=O)c2)O[C@@]1(C)C(F)(F)F` (relative stereo) [Compound 99, rel-4-((2R*,3S*,4S*,5R*)-3-(3,4-difluoro-2-(((1R,2R)-2-hydroxycyclobutyl)methoxy)phenyl)-4,5-dimethyl-5-(trifluoromethyl)tetrahydrofuran-2-carboxamido)picolinamide]: the IC50 was in the range of 10 to 100 nM.

`COCCOc1c([C@H]2[C@H](C(=O)Nc3ccnc(C(N)=O)n3)O[C@@](C)(C(F)(F)F)[C@H]2C)ccc(F)c1C` (single isomer, unassigned) [Compound 3]: the IC50 was under 10 nM.

For the compound `COCCOc1c([C@@H]2[C@@H](C(=O)Nc3ccnc(C(N)=O)n3)O[C@](C)(C(F)(F)F)[C@@H]2C)ccc(F)c1C` (single isomer, unassigned) [Compound 4], the IC50 was at least 1000 nM.

Consider `COc1c(C2CC3(COC3)OC2C(=O)Nc2ccnc(C(N)=O)c2)ccc(F)c1C` (single isomer, unassigned) [Compound 24], for which the IC50 is at least 1000 nM.

Turning to `COCC1(C)CC(c2ccc(F)c(F)c2OC)C(C(=O)Nc2ccnc(C(N)=O)c2)O1` (single isomer, unassigned) [Compound 27], the IC50 was at least 1000 nM.

On to `COCC1(C)CC(c2ccc(F)c(F)c2OC)C(C(=O)Nc2ccnc(C(N)=O)c2)O1` (single isomer, unassigned) [Compound 28], for which the IC50 lay within 100 to 1000 nM.

Take `COCC1(C)CC(c2ccc(F)c(F)c2OC)C(C(=O)Nc2ccnc(C(N)=O)c2)O1` (single isomer, unassigned) [Compound 29]: the IC50 is at least 1000 nM.

Consider `COCC[C@@]1(C)C[C@H](c2ccc(F)c(F)c2OC)[C@@H](C(=O)Nc2ccnc(C(N)=O)c2)O1` (single isomer, unassigned) [Compound 31], for which the IC50 lay in the range of 100 to 1000 nM.

As for `C[C@H]1[C@@H](c2ccc(F)c(F)c2OC[C@H]2CCO2)[C@H](C(=O)Nc2ccnc(C(N)=O)c2)O[C@@]1(C)C(F)(F)F` (single isomer, unassigned) [Compound 59, rel-4-((2R*,3S*,4S*,5R*)-3-(3,4-difluoro-2-((oxetan-2-yl)methoxy)phenyl)-4,5-dimethyl-5-(trifluoromethyl)tetrahydrofuran-2-carboxamido)picolinamide], the IC50 is under 10 nM.

Regarding `C[C@H]1[C@@H](c2ccc(F)c(F)c2OCC2CCOC2)[C@H](C(=O)Nc2ccnc(C(N)=O)c2)O[C@@]1(C)C(F)(F)F` (single isomer, unassigned) [Compound 67], the IC50 was under 10 nM.

On to `CC[C@H](CO)COc1c([C@H]2[C@H](C(=O)Nc3ccnc(C(N)=O)c3)O[C@@](C)(C(F)(F)F)[C@H]2C)ccc(F)c1F` (single isomer, unassigned) [Compound 92, rel-4-((2R*,3S*,4S*,5R*)-3-(3,4-difluoro-2-(2-(hydroxymethyl)butoxy)phenyl)-4,5-dimethyl-5-(trifluoromethyl)tetrahydrofuran-2-carboxamido)picolinamide], for which the IC50 was in the range of 10 to 100 nM.

For `CC[C@H](CO)COc1c([C@H]2[C@H](C(=O)Nc3ccnc(C(N)=O)c3)O[C@@](C)(C(F)(F)F)[C@H]2C)ccc(F)c1F` (single isomer, unassigned) [Compound 93, rel-4-((2R*,3S*,4S*,5R*)-3-(3,4-difluoro-2-(2-(hydroxymethyl)butoxy)phenyl)-4,5-dimethyl-5-(trifluoromethyl)tetrahydrofuran-2-carboxamido)picolinamide], the IC50 was under 10 nM.
